# In patent US5235045A, “Non-azo naphthalimide dyes” (priority 1992, dated 1993):
# What was measured:
# [1] = tested on: Herpes simplex virus type 1; test: Effect of Ed6Br and light on aqueous suspensions of HSV-1 (plaque assay); type: cell-based, MacIntyre strain
# [2] = tested on: DAUDI cells; test: Photoinduced cell kill of DAUDI cells ([3H]-thymidine incorporation); type: cell-based; conditions: for CPM ([3H]-thymidine incorporation): 10% FCS medium
# Method: An additional study using DAUDI cells and lower concentrations of Compound VII was performed according to the same protocol for studying the photochemical kill of H9 cells mediated by Compound VII. Viability was determined by the trypan blue assay above, as well as by [^3 H]-thymidine incorporation. The [^3 H]-thymidine incorporated protocol was as follows:
# After irradiation, the cells were diluted to 3×10^5 cells/ml with medium containing twice the normal concentration of gentamycin. The cells were pipetted into a 96-well TC plat (100 μl/well) and incubated at 37° C. in a 5% CO2 incubator for 36 hours. At this time 1 μCi of [^3 ]-thymidine was added and allowed to incorporate for 6 hours. The cells were then harvested on glass fiber filters and placed into scintillation vials to which cocktail was added. The samples were counted on a Beckman model LS 6000IC scintillation counter.
# [3] = tested on: Vero cells; test: Cellular toxicity in Vero cells (viral-medium suspension samples); type: cell-based
# Method: (§1) Each sample including the stock virus were assayed on Vero cells for PFU/ml of HSV-1. The assay consisted of growing Vero cells in minimal essential medium with Hanks balanced salt solution supplemented with 10% fetal bovine serum, L-glutamine and antibiotics. Hepes buffer (2%) was added for growth in open plates (twelve well microplates from CO-star). Ten fold dilutions of each sample were prepared and 0.1 ml of the appropriate dilution for each individual sample was adsorbed at 37° C. for 1.5 hr. on a cell monolayer from which the growth medium had been removed. After the adsorption period, the cell monolayer was washed and an overlay consisting of equal volumes of 2X strength L-15 medium and 2% methylcellulose was added. Following an appropriate incubation time at 37° C. (about 4 days), the overlay medium was removed. Monolayers were fixed with methanol and stained with giemsa to elaborate the presence of plaques. The plaques were counted using a dissecting microscope at a magnification of 20X.
# as §1, with “Co-star).” for “CO-star).”
# [4] = tested on: Human serum Albumen (HSA); test: Protein crosslinking with DiEd6Br: human serum albumen; type: biochemical; conditions: 30.0 μM, 791 J/cm^2
# [5] = tested on: Gramacidin D; test: Effects of 420 nm radiation on liposomal-bound Gramacidin D and DiEd6Br fluorescence; type: biochemical; conditions: 100 J/cm^2, 420 nm; for Tryptophan fluorescence ratio irradiated/unirradiated (IT/DT): 0 μM dye 91.23
# [6] = tested on: H9 cells; test: Uptake into living H9 cells; type: cell-based, human; conditions: for rate constant for uptake: 10% fetal calf serum
# Method: For measurement, the pellet was diluted in 3 ml PBS+0.1% CTAB immediately prior to fluorescence measurement. Fluorescence measurements were made using an excitation wavelength of 451 nm, and an emission wavelength of 526 nm.
# The protocol used is as above in (1), modified as below for those experiments in the presence of colchicine: Colchicine (1 mg/ml) was added to H9 cells at 5×10^.ident. cells/ml, and incubated for 1 hour. The cells were centrifuged, fresh medium was added, and 1b (25 μM) was added. Samples were taken at 0, 2, and 4 hours.
structure (smiles),measurement,setting,value
"CCCCCCNc1c(Br)cc2c3c(cccc13)C(=O)N(CCCCCC)C2=O [Compound VII, 3-bromo-4-(hexyl)amino-N-hexyl-1,8-naphthalimide]",PFU/ml,"[1]; 1.25 μM, irradiated 20 J/cm2, 420 nm",0 PFU/ml
same,PFU/ml,"[1]; 2.5 μM, irradiated 20 J/cm2, 420 nm",0 PFU/ml
same,PFU/ml,"[1]; 5 μM, irradiated 20 J/cm2, 420 nm",0 PFU/ml
same,PFU/ml,"[1]; 10 μM, irradiated 20 J/cm2, 420 nm",0 PFU/ml
same,PFU/ml,"[1]; .078 μM, irradiated 20 J/cm2, 420 nm",3.8 × 10^1 PFU/ml
same,PFU/ml,"[1]; .156 μM, irradiated 20 J/cm2, 420 nm",1.8 × 10^1 PFU/ml
same,PFU/ml,"[1]; .312 μM, irradiated 20 J/cm2, 420 nm",7.5 × 10^0 PFU/ml
same,PFU/ml,"[1]; .625 μM, irradiated 20 J/cm2, 420 nm",0 PFU/ml
same,log reduction at 1.25 µM,"[1]; Human alphaherpesvirus 1, light or radiation study, 1.25 μM, irradiated 20 J/cm2, 420 nm, read-out: Log10 Reduction",5.8
same,log reduction at 2.5 µM,"[1]; Human alphaherpesvirus 1, light or radiation study, 2.5 μM, irradiated 20 J/cm2, 420 nm, read-out: Log10 Reduction",5.8
same,log reduction at 5 µM,"[1]; Human alphaherpesvirus 1, light or radiation study, 5 μM, irradiated 20 J/cm2, 420 nm, read-out: Log10 Reduction",5.8
same,log reduction at 10 µM,"[1]; Human alphaherpesvirus 1, light or radiation study, 10 μM, irradiated 20 J/cm2, 420 nm, read-out: Log10 Reduction",5.8
same,log reduction at 0.078 µM,"[1]; Human alphaherpesvirus 1, light or radiation study, .078 μM, irradiated 20 J/cm2, 420 nm, read-out: Log10 Reduction",4.22
same,log reduction at 0.156 µM,"[1]; Human alphaherpesvirus 1, light or radiation study, .156 μM, irradiated 20 J/cm2, 420 nm, read-out: Log10 Reduction",4.54
same,log reduction at 0.312 µM,"[1]; Human alphaherpesvirus 1, light or radiation study, .312 μM, irradiated 20 J/cm2, 420 nm, read-out: Log10 Reduction",4.92
same,log reduction at 0.625 µM,"[1]; Human alphaherpesvirus 1, light or radiation study, .625 μM, irradiated 20 J/cm2, 420 nm, read-out: Log10 Reduction",5.8
same,kill of HSV-1,"[1]; as low as 0.078 mM, 420 nm, 20 J/cm2, 2.5% or less of serum proteins",> 99.99%
same,CPM ([3H]-thymidine incorporation),"[2]; 1 μM, hν",1.2 ± 0.4 × 10^2 CPM
same,CPM ([3H]-thymidine incorporation),"[2]; 1 μM, no hν",5.1 ± 0.3 × 10^4 CPM
same,CPM ([3H]-thymidine incorporation),"[2]; 5 μM, hν",1.1 ± 0.3 × 10^2 CPM
same,CPM ([3H]-thymidine incorporation),"[2]; 5 μM, no hν",4.8 ± 0.3 × 10^4 CPM
same,CPM ([3H]-thymidine incorporation),"[2]; 10 μM, hν",1.0 ± 0.4 × 10^2 CPM
same,CPM ([3H]-thymidine incorporation),"[2]; 10 μM, no hν",4.5 ± 0.2 × 10^4 CPM
same,photochemical cell inactivation,"[2]; concentrations as low as 1 μM, 10J/cm^2",highly efficient photochemical cell inactivator
same,cellular toxicity,"[3]; Ed6Br, 8 concentrations, not irradiated",no evidence of cellular toxicity
same,cellular toxicity of not previously irradiated samples,"[3]; two concentrations, vs irradiated samples",significantly less cellular toxicity than the irradiated samples
CCCCCCN1C(=O)c2cccc3c(NCCNC(=O)CCCCC(=O)NCCNc4c(Br)cc5c6c(cccc46)C(=O)N(CCCCCC)C5=O)c(Br)cc(c23)C1=O [Compound XLIV],heavier bands,[4],many ill separated heavier bands merging together near
same,Inferred Crosslinked Species,[4]; first species,2 HSA
same,Inferred Crosslinked Species,[4]; second species,3 HSA
same,Inferred Crosslinked Species,[4]; third species,3 HSA
same,"Inferred Crosslinked Species, Gel mw",[4]; 2 HSA units,120 kD
same,"Inferred Crosslinked Species, Gel mw","[4]; 3 HSA units (so in the source), third species",240 kD
same,"Inferred Crosslinked Species, Gel mw","[4]; 3 HSA units, second species",180 kD
same,cellular toxicity,"[3]; DiEd6Br, 2 concentrations, not irradiated (Table 18 experiment)",no evidence of cellular toxicity
same,cellular toxicity,"[3]; DiEd6Br, 8 concentrations, not irradiated (Table 15 experiment)",no evidence of cellular toxicity
same,cellular toxicity,"[3]; DiEd6Br, 8 concentrations, not irradiated (Table 16 experiment)",no evidence of cellular toxicity
same,DiEd6Br fluorescence ratio irradiated/unirradiated (ID/DD),[5]; 10 μM,5.03%
same,Tryptophan fluorescence ratio irradiated/unirradiated (IT/DT),[5]; 10 μM,10.57%
same,DiEd6Br fluorescence ratio irradiated/unirradiated (ID/DD),[5]; 20 μM,9.24%
same,Tryptophan fluorescence ratio irradiated/unirradiated (IT/DT),[5]; 20 μM,10.77%
same,DiEd6Br fluorescence ratio irradiated/unirradiated (ID/DD),[5]; 50 μM,20.26%
same,Tryptophan fluorescence ratio irradiated/unirradiated (IT/DT),[5]; 50 μM,14.40%
"CCCCCCNc1ccc2c3c(cccc13)C(=O)N(CCCCCC)C2=O [Compound 1b, 4-(hexyl)amino-N-hexyl-1,8-naphthalimide]",rate constant for uptake,"[6]; 1 μM, 4° C.",3.5 ± 0.6 × 10^-4 s^-1
same,rate constant for uptake,"[6]; 1 μM, 37° C.",3.6 ± 1.7 × 10^-4 s^-1
same,rate constant for uptake,"[6]; 5 μM, 4° C.",2.7 ± 1.0 × 10^-4 s^-1
same,rate constant for uptake,"[6]; 5 μM, 37° C.",3.3 ± 0.7 × 10^-4 s^-1
same,rate constant for uptake,"[6]; 25 μM, 4° C.",2.3 ± 0.9 × 10^-4 s^-1
same,rate constant for uptake,"[6]; 25 μM, 37° C.",2.5 ± 0.3 × 10^-4 s^-1
same,total uptake in presence of colchicine,"[6]; 25 μM, colchicine pre-incubated 1 hour",decreased
same,"slope of log/log plot of fluorescence vs. time, presence and absence of colchicine","[6]; after 2 hours, 25 μM",essentially the same slope
